The values below come from ChEMBL document CHEMBL2074338, “Characterization of organic anion transport inhibitors using cells stably expressing human organic anion transporters” (Eur J Pharmacol, 2001).

Broadly, the Ki is a measure of affinity in units of concentration, obtained from inhibition or displacement. Read a high Ki as lower affinity.

This assay has as its target T1, Organic anion transporter 3 (Homo sapiens, UniProt Q8TCC7).
T1 sequence (Q8TCC7 whole entry): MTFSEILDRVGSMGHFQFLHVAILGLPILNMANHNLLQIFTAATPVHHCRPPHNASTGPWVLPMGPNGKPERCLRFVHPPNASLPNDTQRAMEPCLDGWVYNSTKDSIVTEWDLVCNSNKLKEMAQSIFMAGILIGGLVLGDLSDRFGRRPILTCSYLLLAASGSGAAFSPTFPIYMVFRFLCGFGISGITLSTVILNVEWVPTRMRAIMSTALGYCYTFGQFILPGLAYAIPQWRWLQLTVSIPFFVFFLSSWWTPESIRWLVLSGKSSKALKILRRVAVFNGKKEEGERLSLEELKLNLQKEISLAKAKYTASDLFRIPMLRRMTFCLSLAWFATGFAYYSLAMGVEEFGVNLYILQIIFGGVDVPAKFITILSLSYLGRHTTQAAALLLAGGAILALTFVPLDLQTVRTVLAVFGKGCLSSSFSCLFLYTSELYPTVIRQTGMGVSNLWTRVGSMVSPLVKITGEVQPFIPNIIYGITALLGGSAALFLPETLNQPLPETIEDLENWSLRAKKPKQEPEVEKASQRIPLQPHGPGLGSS
Kind of assay: TP_TRANSPORTER: inhibition of E1S uptake in OAT3-expressing S2 cells. Type of assay: functional, cell-based.
The molecule `O=C(O)CCNC(=O)c1ccccc1` [BETAMIPRON] came in with a Ki of 48.3 µM. Molecule `CC1(C)C[C@@H]1C(=O)N/C(=C\CCCCSC[C@H](N)C(=O)O)C(=O)O` [CILASTATIN] yielded a Ki of 231 µM.

In turn, `CCCn1c(=O)c2[nH]c(C34CC5CC(CC3C5)C4)nc2n(CCC)c1=O` [ROLOFYLLINE] had a Ki of 3.7 µM.
